Data reported in publication PMC3763849 (ACS medicinal chemistry letters, 2013).
“Also recorded” adds a separate entry of the source.

Legend:
PBM cells = experiment: Cellular pharmacology in PBM cells: intracellular nucleoside triphosphate levels; format: in vitro ADME, human
HIV-1LAI = experiment: HIV-1 susceptibility assay in human PBM cells infected with HIV-1LAI; format: cell-based; details: for fold greater potency versus HIV-1 compared to parent nucleoside: phosphoramidate versus parent nucleoside
[1] = system: five tested cell lines (PBM, HepG2, Huh7, Vero, CEM); experiment: Cytotoxicity across the five tested cell systems; format: cell-based
HBV = experiment: Antiviral activity against HBV in the HepAD38 cell system; format: cell-based

Row | SMILES | formation of dioxolane-A triphosphate (PBM cells) | fold greater potency versus HIV-1 compared to parent nucleoside (HIV-1LAI) | other results
1 | Nc1ncnc2c1ncn2[C@H]1CO[C@@H](CO)O1 [Compound 6, (−)-β-D-(2R,4R)-6-amino dioxolane adenosine] | found to form the dioxolane-A triphosphate | – | –
2 | CCOC(=O)CCc1ccccc1OP(=O)(N[C@@H](C)C(=O)OCC)OC[C@@H]1OC[C@H](n2cnc3c(NC4CC4)ncnc32)O1 (stereo partly drawn) [Compound 23] | found to form the dioxolane-A triphosphate | – | –
3 | CCOC(=O)[C@H](C)NP(=O)(OC[C@@H]1OC[C@H](n2cnc3c(N)ncnc32)O1)Oc1ccccc1 (stereo partly drawn) [Compound 17] | found to form the dioxolane-A triphosphate; also recorded: highest levels of dioxolane-A triphosphate | up to 3,600 fold | –
4 | CCOC(=O)[C@H](C)NP(=O)(OC[C@@H]1OC[C@H](n2cnc3c(NC4CC4)ncnc32)O1)Oc1ccccc1 (stereo partly drawn) [Compound 22] | found to form the dioxolane-A triphosphate | up to 3,600 fold | cytotoxicity in the five tested cell lines [1]: no observed cytotoxicity
5 | CCOC(=O)[C@H](C)NP(=O)(OC[C@@H]1OC[C@H](n2cnc3c(OC)ncnc32)O1)Oc1ccccc1 (stereo partly drawn) [Compound 19] | – | up to 3,600 fold | –
6 | CCOC(=O)CCc1ccccc1OP(=O)(N[C@@H](C)C(=O)OCC)OC[C@@H]1OC[C@H](n2cnc3c(N)ncnc32)O1 (stereo partly drawn) [Compound 18] | found to form the dioxolane-A triphosphate; also recorded: highest levels of dioxolane-A triphosphate | up to 3,600 fold | –
7 | CCOC(=O)CCc1ccccc1OP(=O)(N[C@@H](C)C(=O)OCC)OC[C@@H]1OC[C@H](n2cnc3c(OC)ncnc32)O1 (stereo partly drawn) [Compound 20] | – | up to 3,600 fold | –
8 | OC[C@@H]1OC[C@H](n2cnc3c(NC4CC4)ncnc32)O1 [Compound 8] | – | – | activity versus HBV (HBV): essentially not active; activity versus HIV (HIV-1LAI): essentially not active; cytotoxicity in the five tested cell lines [1]: did not display any cytotoxicity
9 | Nc1nc(N)c2ncn([C@H]3CO[C@@H](CO)O3)c2n1 [DAPD, Amdoxovir, reference compound] | – | – | activity versus HBV (HBV): low micromolar
